Where “and” joins values, the source holds several entries; their conditions need not be identical. Equal entries are not always repeated. Where two headings read alike, the source gives them in different places.
Assays:
cdk2 cyclinA(h) = target: T1, cdk2 cyclinA(h) (Homo sapiens, UniProt P24941); assay: Kinase inhibitory activity (EMD Millipore KinaseProfiler), cdk2; assay type: biochemical
T1 construct: purchased EMD Millipore KinaseProfiler service (Millipore UK Ltd.)
Method: (§1) Kinase inhibitory activity. Kinase inhibitory activities were determined using the EMD Millipore KinaseProfiler™ service (Millipore UK Ltd.). Each compound's kinase inhibitory activity was tested at three different concentrations (0.2 μM, 2 μM, and 20 μM) against five different kinases: Cdk1 cyclinB(h), cdk2 cyclinA(h), cdk5 p35(h), mitogen-activated protein kinase (MAPK1(h)) and myosin light-chain kinase (MLCK(h)).
(§2) Statistical Analysis. […] For the dose-response analyses on Ca^2+ current, each concentration of the four different compounds was tested in 3-6 cells. […] All EC50 and IC50 values and their respective errors were determined by performing 100 iterations of a logistic function curve fit.

[1] = target: T2, myosin light-chain kinase (MLCK(h)) (Homo sapiens, UniProt Q9H1R3); assay: Kinase inhibitory activity (EMD Millipore KinaseProfiler), MLCK; assay type: biochemical; conditions: 20 μM highest concentration used; read-out: MLCK EC50/IC50 affinities
T2 construct: purchased EMD Millipore KinaseProfiler service (Millipore UK Ltd.)
Method: as §1, §2

[2] = system: LEMS passive transfer mouse NMJs; assay: Intracellular recordings at LEMS passive transfer mouse NMJs, ex vivo ETA nerve-muscle preparation (Example 3)
Method: LEMS passive transfer. To test GV-58 in a LEMS model NMJ, an established LEMS passive transfer mouse model was utilized. To perform the passive transfer of LEMS, mice were injected with the serum of patients diagnosed with LEMS. […] Each serum sample was tested for the presence of voltage-gated Ca^2+ channel antibodies using a Ca^2+ channel antibody radioimmune assay (Kronus RIA kit, Star, Id.). Control serum was obtained from the University of Pittsburgh Medical Center blood bank. […]; 25-32 g; Charles River Laboratories) were divided into two groups: one group that received LEMS serum, and a control group that received control serum.
Intracellular recordings at mouse NMJs. […] A thin upper arm muscle, the epitrochleoanconeus (ETA), was chosen for these recordings. […] […]. A train of 10 EPPs was also collected in each muscle fiber using an inter-stimulus interval of 20 msec. To analyze the data, both the amplitudes and the areas under the waveforms (integral) were determined after correcting each digitized point in each trace for non-linear summation. Data were collected and analyzed using an Axoclamp 900A and the pClamp 10 suite of programs (Molecular Devices, Sunnyvale, Calif.).
Statistical Analysis. […] For the dose-response analyses on Ca^2+ current, each concentration of the four different compounds was tested in 3-6 cells. […]. All EC50 and IC50 values and their respective errors were determined by performing 100 iterations of a logistic function curve fit.

[3] = target: T3, N-type Ca^2+ channel (Cav2.2) (Rattus norvegicus, UniProt Q02294); assay: N-type Ca2+ channel agonist activity, whole-cell perforated patch clamp of tail currents in tsA201 cells; assay type: cell-based
T3 construct: expressed in transfected cells; later also transient transfection
T3 sequence (Q02294 whole entry): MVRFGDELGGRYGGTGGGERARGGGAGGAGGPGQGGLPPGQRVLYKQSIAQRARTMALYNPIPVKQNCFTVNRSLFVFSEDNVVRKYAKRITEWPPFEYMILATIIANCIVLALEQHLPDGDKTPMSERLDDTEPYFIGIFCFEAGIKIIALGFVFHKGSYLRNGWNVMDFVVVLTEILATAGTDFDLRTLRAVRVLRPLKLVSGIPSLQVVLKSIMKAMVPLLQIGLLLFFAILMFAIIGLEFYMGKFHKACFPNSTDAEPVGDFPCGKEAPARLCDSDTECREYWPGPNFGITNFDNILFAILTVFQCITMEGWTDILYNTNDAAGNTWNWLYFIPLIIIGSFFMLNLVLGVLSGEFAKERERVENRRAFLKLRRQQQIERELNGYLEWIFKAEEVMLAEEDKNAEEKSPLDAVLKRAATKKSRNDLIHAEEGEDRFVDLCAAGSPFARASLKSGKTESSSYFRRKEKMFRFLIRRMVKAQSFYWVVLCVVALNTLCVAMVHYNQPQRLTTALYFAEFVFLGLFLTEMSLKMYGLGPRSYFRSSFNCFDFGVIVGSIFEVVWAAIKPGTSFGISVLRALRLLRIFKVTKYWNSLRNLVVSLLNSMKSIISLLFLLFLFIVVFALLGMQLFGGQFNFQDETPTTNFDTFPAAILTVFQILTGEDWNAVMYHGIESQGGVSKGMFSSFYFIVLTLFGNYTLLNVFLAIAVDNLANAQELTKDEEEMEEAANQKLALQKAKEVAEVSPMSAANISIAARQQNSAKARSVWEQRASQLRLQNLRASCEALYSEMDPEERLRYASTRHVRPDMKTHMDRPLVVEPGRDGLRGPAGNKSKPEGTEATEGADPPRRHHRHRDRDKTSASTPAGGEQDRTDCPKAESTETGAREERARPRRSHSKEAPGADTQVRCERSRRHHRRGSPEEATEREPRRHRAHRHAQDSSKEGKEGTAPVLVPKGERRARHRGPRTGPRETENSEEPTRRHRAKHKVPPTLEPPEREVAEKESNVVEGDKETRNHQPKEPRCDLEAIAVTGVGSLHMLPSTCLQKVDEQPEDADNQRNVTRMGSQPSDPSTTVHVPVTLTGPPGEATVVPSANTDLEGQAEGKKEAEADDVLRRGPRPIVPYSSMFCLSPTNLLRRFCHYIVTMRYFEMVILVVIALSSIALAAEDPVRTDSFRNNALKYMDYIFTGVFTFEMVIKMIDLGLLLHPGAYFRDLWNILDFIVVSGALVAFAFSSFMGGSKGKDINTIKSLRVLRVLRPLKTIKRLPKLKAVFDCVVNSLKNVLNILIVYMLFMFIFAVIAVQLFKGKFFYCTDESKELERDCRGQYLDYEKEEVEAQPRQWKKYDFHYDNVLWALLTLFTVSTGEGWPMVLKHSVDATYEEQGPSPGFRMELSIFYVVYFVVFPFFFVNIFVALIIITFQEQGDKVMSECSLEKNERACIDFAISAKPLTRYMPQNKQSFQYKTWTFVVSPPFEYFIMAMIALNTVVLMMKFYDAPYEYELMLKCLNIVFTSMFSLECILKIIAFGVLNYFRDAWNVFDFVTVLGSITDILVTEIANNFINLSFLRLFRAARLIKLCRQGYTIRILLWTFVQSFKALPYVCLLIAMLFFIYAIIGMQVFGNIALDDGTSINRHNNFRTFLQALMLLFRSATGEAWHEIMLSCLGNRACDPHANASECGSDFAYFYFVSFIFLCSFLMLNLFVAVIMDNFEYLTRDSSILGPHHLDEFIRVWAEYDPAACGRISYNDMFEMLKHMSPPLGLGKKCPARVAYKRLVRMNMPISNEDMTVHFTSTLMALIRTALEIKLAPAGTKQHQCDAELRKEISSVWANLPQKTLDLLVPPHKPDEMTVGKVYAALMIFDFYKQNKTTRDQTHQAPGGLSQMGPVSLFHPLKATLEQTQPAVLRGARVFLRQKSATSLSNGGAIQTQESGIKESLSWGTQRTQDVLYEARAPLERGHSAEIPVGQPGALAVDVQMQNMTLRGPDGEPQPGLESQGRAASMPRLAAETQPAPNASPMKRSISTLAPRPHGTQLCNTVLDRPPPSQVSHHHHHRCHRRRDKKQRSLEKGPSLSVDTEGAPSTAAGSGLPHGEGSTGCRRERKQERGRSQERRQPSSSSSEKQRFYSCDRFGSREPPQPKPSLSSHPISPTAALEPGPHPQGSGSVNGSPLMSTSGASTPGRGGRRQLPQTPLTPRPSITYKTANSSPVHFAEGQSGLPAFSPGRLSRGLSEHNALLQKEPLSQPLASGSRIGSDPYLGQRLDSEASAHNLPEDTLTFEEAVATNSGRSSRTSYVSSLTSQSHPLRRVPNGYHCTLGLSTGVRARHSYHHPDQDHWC
Method: tsA201 cells expressing calcium channels. […] For subsequent evaluation of effects on N-, P/Q-, or L-type channels, tsA-201 cells were transiently transfected with Cav2.2, Cav2.1, or Cav1.3, in combination with Cavβ3 and […] (Addgene, Cambridge Mass.) using FuGENE 6 (Life Technologies, Grand Island, N.Y.). All cells were maintained in DMEM supplemented with 10% fetal bovine serum. For the stable cell line expressing N-type channels, 25 μg/mL zeocin, 5 μg/mL blasticidin, and 25 μg/mL hygromycin were added as selection agents.
Whole-cell patch clamp recordings of calcium current. […] Briefly, the pipette solution consisted of […] Cs2SO4, 60 mM CsCl, 1 mM MgCl2, 10 mM 4-(2-hydroxyethyl)-1-piperazineethanesulfonic acid (HEPES) at pH 7.4. […] Patch pipettes were fabricated from borosilicate glass and pulled to a resistance of about 1 MΩ. Before each experiment, a stock solution consisting of 3 mg amphotericin-B dissolved into 50 μL anhydrous DMSO was made. […] Capacitive currents and passive membrane responses to voltage commands were subtracted from the data. Currents were amplified by an Axopatch 200B amplifier, filtered at 5 KHz, and digitized at 10 KHz for subsequent analysis using pClamp software (Axon Instruments/Molecular Devices; Sunnyvale, Calif.). […] To measure effects on calcium channel tail currents, the tail current integral was measured before and after application of a derivative, with the integral of each trace being normalized to its peak. All experiments were carried out at room temperature (22° C.). […] All other salts and chemicals were obtained from Sigma-Aldrich chemical company (St. Louis, Mo.).
(§3) Statistical Analysis. Statistical analysis was performed using either GraphPad Prism 5 (GraphPad Software, Inc.) or Origin 7 (OriginLab) software. For the dose-response analyses on Ca^2+ current, each concentration of the four different compounds was tested in 3-6 cells. […] All EC50 and IC50 values and their respective errors were determined by performing 100 iterations of a logistic function curve fit. Data are presented as mean±s.e.m. unless otherwise noted.

Cdk1 cyclinB(h) = target: T4, Cdk1 cyclinB(h) (Homo sapiens, UniProt P06493); assay: Kinase inhibitory activity (EMD Millipore KinaseProfiler), cdk1; assay type: biochemical; conditions: 20 μM highest concentration used; read-out: Cdk1 EC50/IC50 affinities
T4 construct: purchased EMD Millipore KinaseProfiler service (Millipore UK Ltd.)
T4 sequence (P06493 whole entry): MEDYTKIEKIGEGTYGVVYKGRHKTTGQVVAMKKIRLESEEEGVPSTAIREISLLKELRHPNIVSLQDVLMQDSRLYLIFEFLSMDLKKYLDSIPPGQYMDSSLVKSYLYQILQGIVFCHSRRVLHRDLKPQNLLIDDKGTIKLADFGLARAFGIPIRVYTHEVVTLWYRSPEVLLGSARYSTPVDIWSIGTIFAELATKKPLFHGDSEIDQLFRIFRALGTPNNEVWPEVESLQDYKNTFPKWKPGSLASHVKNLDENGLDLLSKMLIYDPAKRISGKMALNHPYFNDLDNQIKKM
T4 sequence (P14635 whole entry partner): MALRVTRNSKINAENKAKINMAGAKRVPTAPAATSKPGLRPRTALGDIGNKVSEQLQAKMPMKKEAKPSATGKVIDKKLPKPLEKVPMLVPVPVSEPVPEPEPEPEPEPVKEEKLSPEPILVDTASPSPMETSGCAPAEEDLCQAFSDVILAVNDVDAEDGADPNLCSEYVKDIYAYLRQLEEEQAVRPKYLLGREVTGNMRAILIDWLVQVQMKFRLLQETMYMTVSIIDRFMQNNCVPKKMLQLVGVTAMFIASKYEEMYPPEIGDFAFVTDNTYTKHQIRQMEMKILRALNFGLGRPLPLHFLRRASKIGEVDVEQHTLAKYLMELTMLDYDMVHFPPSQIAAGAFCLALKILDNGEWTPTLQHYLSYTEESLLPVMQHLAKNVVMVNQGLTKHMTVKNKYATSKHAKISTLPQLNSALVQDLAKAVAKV
Method: as §1, §3

## CCCn1cnc2c(NCc3ccc(C)s3)nc(N[C@H](CC)CO)nc21 [Compound 13x, (2R)-2-[(6-{[(5-Methylthiophen-2-yl)methyl]amino}-9-propyl-9H-purin-2-yl)amino]butan-1-ol]
cdk2 cyclinA(h); 20 μM highest concentration used, read-out: Cdk2 EC50/IC50 affinities
  IC50: 3.29 ± 0.43 µM
cdk2 cyclinA(h); determined in duplicate at 0.2, 2, and 20 μM, read-out: Cdk2 Activity EC50 +/− SEM
  EC50: 3 µM
[1]
  IC50: > 20 µM
[2]
  increase of the strength of neuromuscular transmission: about 50%
[2]; 50 μM
  EPP 90% to 10% decay time: 6.79 ± 0.11 ms
  EPP full width at half maximum (FWHM): 3.90 ± 0.07 ms
  final EPP in 50 Hz train of 10 stimuli, normalized to the first EPP: about 94%
  mEPP frequency: 10.45 ± 0.64 s⁻¹
[2]; 50 μM vs vehicle
  increase of quantal content when measuring area: ~92%
  increase of quantal content when measuring peak: ~62%
[2]; 50 μM, relative to vehicle
  mean change in mEPP amplitude: 1.00±0.02
[2]; aBC2 serum NMJs, 30-minute incubation in 50 μM
  EPP amplitude: 19.44±0.98 mV
[3]; FIG. 4C dose response curve
  higher affinity for the calcium channel than (R)-roscovitine: 6 fold
[3]; N- and P/Q-type
  increase in efficacy as an agonist for N- and P/Q-type Ca^2+ channels vs (R)-roscovitine: ~4 fold
  increase in potency as an agonist for N- and P/Q-type Ca^2+ channels vs (R)-roscovitine: 3-4 fold
[3]; N-type
  agonist effect on the Ca^2+ channel tail currents (in words): strong agonist effect
[3]; N-type channels
  maximal fold increase in the tail current integral relative to control: ~32 fold
[3]; Table 3, calcium channel agonist, read-out: N-type EC50/IC50 affinities
  EC50: 7.21 ± 0.86 µM
[3]; read-out: 95% confidence interval for the fit (EC50) to N-type channels
  EC50: 4.6 to 9.8 µM
[3]; whole cell perforated patch clamp, deactivation (tail) currents from N-type channels, read-out: N-Type Ca^2+ Channel Activity EC50 +/− SEM
  EC50: 7.2 µM and 7.21 µM
Cdk1 cyclinB(h)
  IC50: 20.6 ± 0.96 µM
